Results from patent US8173813B2, “Quinolone and tetrahydroquinolone and related compounds having NOS inhibitory activity” (NeurAxon, Inc., priority 2007, dated 2012).
Where “and” joins values, the source holds several entries; their conditions need not be identical. Equal values may be shown once. Read-outs that look alike come from different tables or passages of the source.

Legend:
[1] = target: Nitric oxide synthase (neuronal, human recombinant) nNOS (Homo sapiens, UniProt P29475); test: Human nNOS enzyme assay ([3H]L-arginine to [3H]L-citrulline); type: biochemical; conditions: for IC50: read-out: hnNOS IC50; for Selectivity eNOS/nNOS: human enzymes, ratio of eNOS IC50 to nNOS IC50
[2] = target: Recombinant human inducible NOS (iNOS) (Homo sapiens, UniProt P35228); test: Human iNOS enzyme assay, radiometric; type: biochemical; conditions: read-out: hiNOS IC50
nNOS (Rat) = nNOS (Rat) (Rattus norvegicus, UniProt P29476); test: nNOS (Rat) enzyme assay; type: biochemical; conditions: for IC50: read-out: nNOS IC50 (rodent data in parentheses)
Procedure: (§1) nNOS (Rat), eNOS (Rat) and iNOS (Mouse) Enzyme Assay Recombinant rat or mouse NO synthases (iNOS, eNOS, nNOS) were expressed in Sf9 cells (Sigma), 36 mg prot/ml (Bradford). […] Inhibition of NOS was determined by measuring the formation of L-[3H] citrulline from L-[3H] arginine. […] Stop buffer:100 mM Hepes, pH 5.5, 3 mM EDTA, 3 mM EGTA.

eNOS (Rat) = eNOS (Rat) (Rattus norvegicus, UniProt Q62600); test: eNOS (Rat) enzyme assay; type: biochemical; conditions: values in parentheses; for IC50: read-out: eNOS IC50 (rodent data in parentheses)
iNOS (Mouse) = iNOS (Mouse) (Mus musculus, UniProt P29477); test: iNOS (Mouse) enzyme assay; type: biochemical; conditions: values in parentheses, read-out: iNOS IC50 (rodent data in parentheses)
Procedure: as §1, with “EGTA. Enzyme and inhibitor were pre-incubated for 35 min in the presence of NADPH before addition of arginine to initiate the reaction.” for “EGTA.”

[3] = system: Rats with L5/L6 spinal nerve ligation; test: Chung Spinal Nerve Ligation model, thermal hyperalgesia; type: in vivo, rat; conditions: standard dosings 3, 10, and 30 mg/kg injected IP
[4] = target: Nitric oxide synthase (endothelial, human recombinant) eNOS (Homo sapiens, UniProt P29474); test: Human eNOS enzyme assay ([3H]L-arginine to [3H]L-citrulline); type: biochemical; conditions: read-out: heNOS IC50
[5] = system: sciatic nerve cuff-implanted rats; test: Sciatic Nerve Cuff model, mechanical allodynia (von Frey hair); type: in vivo, rat; conditions: i.p 30 mg/kg
Procedure: The Sciatic Nerve Cuff model in rats (Mosconi and Kruger, 1996, Pain 64, 37-57) involves implantation of a plastic cuff around the sciatic nerve that results in painful neuropathy several days after surgery and induction of nociceptive afterdischarge in spinal neurons after innocuous peripheral mechanical stimulation (G. M. Pitcher and J. L. Henry). Mechanical allodynia is measured in the ipsilateral paw using calibrated von Frey hair testing. A single acute application of the drug (i.p. dosing) reverses the post-cuff pain thresholds to mechanical stimulus towards normal threshold levels.
The study utilized a cuff model (Mosconi T, Kruger L. Fixed-diameter polyethylene cuffs applied to the rat sciatic nerve induce a painful neuropathy: ultrastructural morphometric analysis of axonal alterations. Pain 64: 37-57, 1996) to examine the therapeutic effectiveness of the test compound 11 on a battery of behavioural endpoints in rats.
The testing chamber consists of a 30×30×30 cm Plexiglas box with a clear Plexiglas floor. This floor contained 0.5 cm diameter holes that are spaced 1.5 cm apart, and is positioned over a mirror, which allows an unobstructed view of the rat paws. Animals are placed in the testing chamber and allowed to acclimatize for 30 min prior to testing. von Frey filaments (Stoelting Co., Illinois, USA) are applied to the soft tissue of the plantar surface of the hind paw to determine the withdrawal threshold. The first filament applied corresponds to a force of 4.31 grams. […] A 50% response threshold is calculated according to the response pattern observed (described by Chaplan et al. 1994). […]
A baseline reading with von Frey hairs is taken before model induction. Thus rats are acclimatized to the testing chamber and readings are taken for at least three days for the baseline before any surgery. After the surgery von Frey hair testing for any development of mechanical sensitivity is assessed. […]

[6] = system: sciatic nerve cuff-implanted rats; test: Sciatic Nerve Cuff model, cold plate test (paw lifts); type: in vivo, rat; conditions: daily i.p. 30 mg/kg; cold plate 4±2° C.; 10-minute test period; average
Description: The animal will be placed into a box of approximately 12×12×12 inches. The bottom is filled with an ice-saline mixture and a metal plate is placed just on top of this mixture. […]
[…] Post-testing treatment—the feet will be wiped with a soft cloth or paper towel and the animal will be placed back in its home cage for five minutes. An allowance will be made for the time necessary to transfer to as well as adaptation to the next testing apparatus.
The method of inducing peripheral neuropathy is by implantation of a single cuff around the sciatic nerve, modified from the method described by Mosconi and Kruger (1996), where two to four cuffs were used. Rats are anaesthetized with a combination of ketamine (5 mg/100 g) and xylazine (0.5 mg/100 g), i.p. The left sciatic nerve is exposed after blunt dissection of overlying muscle and freed from surrounding tissue. A cuff made of a 2 mm segment of polyethylene (PE-90) tubing (Intramedic PE-90, Clay Adams, Division of Becton Dickinson, Parsippany, N.J.) slit longitudinally is fit around the nerve. Subsequently the muscle is sutured, and skin closed using suture clips. Antibiotic ointment (Nitrofurazone 0.2%) is applied over the wound, and 0.03 ml of the antibiotic Tribrissen 24% (trimethoprim-sulfadiazine) is injected subcutaneously. […]

[7] = system: sciatic nerve cuff-implanted rats; test: Sciatic Nerve Cuff model, hind leg weight bearing; type: in vivo, rat
Procedure: The method of inducing peripheral neuropathy is by implantation of a single cuff around the sciatic nerve, modified from the method described by Mosconi and Kruger (1996), where two to four cuffs were used. Rats are anaesthetized with a combination of ketamine (5 mg/100 g) and xylazine (0.5 mg/100 g), i.p. The left sciatic nerve is exposed after blunt dissection of overlying muscle and freed from surrounding tissue. A cuff made of a 2 mm segment of polyethylene (PE-90) tubing (Intramedic PE-90, Clay Adams, Division of Becton Dickinson, Parsippany, N.J.) slit longitudinally is fit around the nerve. Subsequently the muscle is sutured, and skin closed using suture clips. Antibiotic ointment (Nitrofurazone 0.2%) is applied over the wound, and 0.03 ml of the antibiotic Tribrissen 24% (trimethoprim-sulfadiazine) is injected subcutaneously. Animals are placed under a heating lamp until they recovered from the anaesthetic and then returned to their home cage.

[8] = system: Male, Sprague Dawley rats; test: Porreca model of allodynia (inflammatory soup onto the dura, hindpaw von Frey); type: in vivo, rat
[9] = human recombinant nNOS, values without parentheses
[10] = human recombinant eNOS, values without parentheses
[11] = human recombinant iNOS, values without parentheses
[12] = rat nNOS, values in parentheses

Sequence of Nitric oxide synthase (neuronal, human recombinant) nNOS (P29475 whole entry): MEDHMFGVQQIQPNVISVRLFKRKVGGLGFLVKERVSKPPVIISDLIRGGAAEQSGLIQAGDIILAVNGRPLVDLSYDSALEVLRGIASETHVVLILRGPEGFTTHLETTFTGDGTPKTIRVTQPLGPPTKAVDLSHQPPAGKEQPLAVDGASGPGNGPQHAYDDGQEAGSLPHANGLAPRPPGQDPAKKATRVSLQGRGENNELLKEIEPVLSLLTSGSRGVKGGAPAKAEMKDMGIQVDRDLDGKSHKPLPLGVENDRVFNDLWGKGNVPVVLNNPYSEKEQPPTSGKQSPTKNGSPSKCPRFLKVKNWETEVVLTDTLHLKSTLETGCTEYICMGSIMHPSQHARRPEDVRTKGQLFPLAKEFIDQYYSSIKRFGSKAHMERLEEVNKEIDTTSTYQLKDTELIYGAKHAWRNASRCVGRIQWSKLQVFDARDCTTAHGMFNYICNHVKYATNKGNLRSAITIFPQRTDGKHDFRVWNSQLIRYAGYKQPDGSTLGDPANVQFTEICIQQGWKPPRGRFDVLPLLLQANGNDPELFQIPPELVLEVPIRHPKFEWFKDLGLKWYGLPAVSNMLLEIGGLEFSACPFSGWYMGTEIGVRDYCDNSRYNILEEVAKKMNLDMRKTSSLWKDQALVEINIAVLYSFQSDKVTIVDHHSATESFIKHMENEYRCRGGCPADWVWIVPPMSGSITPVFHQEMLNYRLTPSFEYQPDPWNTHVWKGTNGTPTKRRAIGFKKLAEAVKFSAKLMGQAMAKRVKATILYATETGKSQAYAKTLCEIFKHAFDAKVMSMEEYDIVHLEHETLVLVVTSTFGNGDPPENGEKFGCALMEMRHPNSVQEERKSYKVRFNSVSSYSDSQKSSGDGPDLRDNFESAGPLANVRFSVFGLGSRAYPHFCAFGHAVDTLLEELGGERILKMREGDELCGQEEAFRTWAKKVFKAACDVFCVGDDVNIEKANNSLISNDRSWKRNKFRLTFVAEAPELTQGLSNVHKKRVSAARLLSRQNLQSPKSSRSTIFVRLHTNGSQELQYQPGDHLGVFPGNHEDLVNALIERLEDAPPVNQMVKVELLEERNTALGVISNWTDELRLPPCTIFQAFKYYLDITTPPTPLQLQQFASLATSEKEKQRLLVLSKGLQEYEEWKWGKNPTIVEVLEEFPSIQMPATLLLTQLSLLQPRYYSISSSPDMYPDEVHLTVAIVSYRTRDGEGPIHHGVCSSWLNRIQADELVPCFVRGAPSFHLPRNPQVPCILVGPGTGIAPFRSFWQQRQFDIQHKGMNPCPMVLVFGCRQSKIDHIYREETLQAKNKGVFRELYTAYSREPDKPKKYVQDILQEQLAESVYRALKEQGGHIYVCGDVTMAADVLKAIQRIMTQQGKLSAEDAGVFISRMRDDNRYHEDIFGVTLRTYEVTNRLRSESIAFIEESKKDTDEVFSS
Sequence of eNOS (Rat) (Q62600 2-1202): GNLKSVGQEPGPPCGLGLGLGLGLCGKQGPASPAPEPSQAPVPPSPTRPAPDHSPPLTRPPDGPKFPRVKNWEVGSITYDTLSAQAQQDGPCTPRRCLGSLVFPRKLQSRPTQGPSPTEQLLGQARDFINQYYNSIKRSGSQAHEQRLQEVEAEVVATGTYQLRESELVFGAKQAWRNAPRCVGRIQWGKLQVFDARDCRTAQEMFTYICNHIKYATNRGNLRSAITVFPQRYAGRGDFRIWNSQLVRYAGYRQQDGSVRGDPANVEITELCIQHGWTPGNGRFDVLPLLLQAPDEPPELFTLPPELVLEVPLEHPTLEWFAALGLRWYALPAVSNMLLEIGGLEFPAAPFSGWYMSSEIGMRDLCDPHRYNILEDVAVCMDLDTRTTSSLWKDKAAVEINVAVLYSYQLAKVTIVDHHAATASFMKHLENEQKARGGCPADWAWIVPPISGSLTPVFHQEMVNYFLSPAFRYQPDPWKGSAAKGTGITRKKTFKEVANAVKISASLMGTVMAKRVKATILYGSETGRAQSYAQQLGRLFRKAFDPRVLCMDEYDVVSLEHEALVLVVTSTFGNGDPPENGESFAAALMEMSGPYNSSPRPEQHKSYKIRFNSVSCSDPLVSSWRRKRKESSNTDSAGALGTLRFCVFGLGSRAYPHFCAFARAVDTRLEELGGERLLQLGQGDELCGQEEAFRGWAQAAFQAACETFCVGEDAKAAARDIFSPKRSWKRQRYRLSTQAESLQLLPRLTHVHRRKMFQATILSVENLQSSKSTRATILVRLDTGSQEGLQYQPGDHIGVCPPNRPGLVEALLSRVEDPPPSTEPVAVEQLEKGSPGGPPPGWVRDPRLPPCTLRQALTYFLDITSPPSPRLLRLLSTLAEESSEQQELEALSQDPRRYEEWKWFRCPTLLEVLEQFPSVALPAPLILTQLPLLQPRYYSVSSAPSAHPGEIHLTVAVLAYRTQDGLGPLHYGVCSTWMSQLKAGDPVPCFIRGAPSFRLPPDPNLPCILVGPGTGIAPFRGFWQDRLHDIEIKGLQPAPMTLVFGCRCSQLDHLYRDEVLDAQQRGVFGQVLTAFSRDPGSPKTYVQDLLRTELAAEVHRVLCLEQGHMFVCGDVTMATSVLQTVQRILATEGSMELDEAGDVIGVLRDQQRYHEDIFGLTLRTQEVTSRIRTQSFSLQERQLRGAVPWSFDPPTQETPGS
Sequence of Nitric oxide synthase (endothelial, human recombinant) eNOS (P29474 2-1203): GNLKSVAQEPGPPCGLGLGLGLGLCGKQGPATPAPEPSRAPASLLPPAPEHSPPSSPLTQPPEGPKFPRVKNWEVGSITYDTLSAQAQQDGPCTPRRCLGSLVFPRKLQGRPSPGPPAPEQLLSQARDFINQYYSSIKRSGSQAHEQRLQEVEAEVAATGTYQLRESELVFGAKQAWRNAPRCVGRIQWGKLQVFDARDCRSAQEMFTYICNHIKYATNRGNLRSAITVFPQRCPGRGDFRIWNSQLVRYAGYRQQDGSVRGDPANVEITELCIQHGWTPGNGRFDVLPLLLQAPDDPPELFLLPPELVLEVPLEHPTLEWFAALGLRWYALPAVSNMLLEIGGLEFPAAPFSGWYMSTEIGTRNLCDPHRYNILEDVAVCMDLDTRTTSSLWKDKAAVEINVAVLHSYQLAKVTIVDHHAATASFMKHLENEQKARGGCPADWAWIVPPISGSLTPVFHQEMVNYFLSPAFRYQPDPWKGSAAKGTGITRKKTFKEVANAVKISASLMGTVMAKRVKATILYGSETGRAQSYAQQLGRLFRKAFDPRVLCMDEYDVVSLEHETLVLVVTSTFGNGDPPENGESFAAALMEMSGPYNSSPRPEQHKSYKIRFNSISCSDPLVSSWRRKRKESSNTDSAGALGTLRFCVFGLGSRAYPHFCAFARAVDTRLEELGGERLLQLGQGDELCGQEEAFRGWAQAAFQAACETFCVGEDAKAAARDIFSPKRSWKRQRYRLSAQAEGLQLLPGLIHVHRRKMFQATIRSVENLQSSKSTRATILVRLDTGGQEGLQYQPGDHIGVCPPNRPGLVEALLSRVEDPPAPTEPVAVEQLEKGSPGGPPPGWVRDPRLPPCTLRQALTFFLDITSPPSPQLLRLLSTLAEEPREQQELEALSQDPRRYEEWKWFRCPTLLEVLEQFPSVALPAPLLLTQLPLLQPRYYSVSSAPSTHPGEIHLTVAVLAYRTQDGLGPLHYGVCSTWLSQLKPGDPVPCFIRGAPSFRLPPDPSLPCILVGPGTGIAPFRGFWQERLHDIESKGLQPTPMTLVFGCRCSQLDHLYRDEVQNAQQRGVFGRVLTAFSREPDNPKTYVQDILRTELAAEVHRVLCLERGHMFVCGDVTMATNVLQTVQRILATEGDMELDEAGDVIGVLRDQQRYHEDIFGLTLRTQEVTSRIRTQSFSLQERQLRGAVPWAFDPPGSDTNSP
Sequence of Recombinant human inducible NOS (iNOS) (P35228 whole entry): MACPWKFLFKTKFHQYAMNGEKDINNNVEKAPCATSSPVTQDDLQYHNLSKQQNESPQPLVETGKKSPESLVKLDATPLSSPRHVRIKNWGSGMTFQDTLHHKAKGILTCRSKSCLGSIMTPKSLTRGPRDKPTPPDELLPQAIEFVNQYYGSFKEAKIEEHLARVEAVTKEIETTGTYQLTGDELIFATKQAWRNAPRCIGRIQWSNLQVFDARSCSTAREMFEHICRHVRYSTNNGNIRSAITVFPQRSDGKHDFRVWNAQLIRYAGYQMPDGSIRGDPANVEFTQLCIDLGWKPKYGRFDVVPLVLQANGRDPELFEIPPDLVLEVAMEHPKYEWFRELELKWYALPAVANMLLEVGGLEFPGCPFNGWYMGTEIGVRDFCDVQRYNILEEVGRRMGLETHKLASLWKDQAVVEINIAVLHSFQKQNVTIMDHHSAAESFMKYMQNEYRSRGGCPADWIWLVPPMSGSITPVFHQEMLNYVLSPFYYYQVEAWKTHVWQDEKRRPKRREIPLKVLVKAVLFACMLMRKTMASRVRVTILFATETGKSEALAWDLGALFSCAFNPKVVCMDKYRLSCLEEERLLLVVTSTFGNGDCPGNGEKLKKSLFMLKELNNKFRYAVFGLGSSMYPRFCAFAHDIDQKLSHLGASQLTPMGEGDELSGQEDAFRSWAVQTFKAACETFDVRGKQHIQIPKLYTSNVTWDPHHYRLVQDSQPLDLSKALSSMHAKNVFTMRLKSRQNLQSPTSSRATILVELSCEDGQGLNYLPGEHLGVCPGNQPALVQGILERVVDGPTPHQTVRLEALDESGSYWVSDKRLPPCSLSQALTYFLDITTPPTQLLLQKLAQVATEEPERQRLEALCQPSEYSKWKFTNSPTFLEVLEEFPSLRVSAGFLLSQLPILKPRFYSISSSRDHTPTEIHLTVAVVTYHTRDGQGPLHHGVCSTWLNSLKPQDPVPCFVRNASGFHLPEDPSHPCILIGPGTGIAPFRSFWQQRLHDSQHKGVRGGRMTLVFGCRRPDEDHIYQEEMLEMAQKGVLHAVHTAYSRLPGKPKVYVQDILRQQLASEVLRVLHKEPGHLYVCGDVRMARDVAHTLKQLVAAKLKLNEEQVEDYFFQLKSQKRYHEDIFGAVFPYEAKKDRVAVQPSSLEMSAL

Compound	IC50 (eNOS (Rat)) [µM]	IC50 (iNOS (Mouse)) [µM]	antihyperalgesic effect in the Chung model [3]	IC50 [1, 9]	IC50 [4, 10]	IC50 [2, 11] [µM]	IC50 (nNOS (Rat); [12]) [µM]	Selectivity eNOS/nNOS [1]	also measured
CN(C)CCN1C(=O)CCc2cc(NC(=N)c3cccs3)ccc21 [Example 3, N-(1-(2-(dimethylamino)ethyl)-2-oxo-1,2,3,4-tetrahydroquinolin-6-yl)thiophene-2-carboximidamide]	65	> 100	no antihyperalgesic effect	–	–	–	–	–	IC50 [1]: 0.58 µM; IC50 [2]: 32 µM; IC50 (nNOS (Rat)): 0.21 µM
CN(C)CCN1CCCc2cc(NC(=N)c3cccs3)ccc21 [Example 11, N-(1-(2-(dimethylamino)ethyl)-1,2,3,4-tetrahydroquinolin-6-yl)thiophene-2-carboximidamide]	> 100	> 100	clear antihyperalgesic effect	0.253 µM	37.7 µM	0.85	0.46	–	IC50 [1]: 0.43 µM; IC50 [4]: 58.7 µM; tactile hypersensitivity, pre-injection reading on the second drug-administration day ([5]; latent effect of the first dose): sustained reversal of the tactile hypersensitivity; tactile sensitivity on successive days of administration ([5]; successive days): no further overt effect; tactile hypersensitivity (von Frey) after first injection ([5]; two and four hours after the first injection): reversed the tactile hypersensitivity; paw lifts in the cold plate test [6]: approximately nine; hind paw weight placement 24 hours after the first dose ([7]; 24 hours after the first dose): preferential placement on the contralateral hind paw; hind paw weight placement on successive days ([7]; drug administration on successive days): shift in hind paw weight placement toward even distribution on each day; hind paw weight placement, first day ([7]; first day, two hours and four hours after drug administration): shift in weight placement toward even distribution between the two hind paws
CN(C)CCN1CCCCc2cc(NC(=N)c3cccs3)ccc21.Cl.Cl [Example 28, N-(1-(2-(Dimethylamino)ethyl)-2,3,4,5-tetrahydro-1H-benzo[b]azepin-7-yl)thiophene-2-carboximidamide dihydrochloride]	62.7	> 100	clear antihyperalgesic effect	0.44 µM	–	35.7	0.12	–	IC50 [4]: 99.1 µM; hindpaw allodynia after inflammatory soup (IS) ([8]; 30 mg/kg p.o. 15 minutes prior to IS): reverses the development of hindpaw allodynia
CNCCN1CCCc2cc(NC(=N)c3cccs3)ccc21.Cl.Cl [Example 30, N-(1-(2-(Methylamino)ethyl)-1,2,3,4-tetrahydroquinolin-6-yl)thiophene-2-carboximidamide dihydrochloride]	–	> 100	–	0.57 µM and 0.38 µM and 0.18 µM	24.7 µM and 29 µM	> 100	0.192	–	IC50 [4]: 40.7 µM; eNOS IC50 (rodent data in parentheses) (eNOS (Rat)): (inactive)
CN1CCC(C2C(=O)Nc3ccc(NC(=N)c4cccs4)cc32)CC1 (stereo not shown) [Example 31, N-(3-(1-Methylpiperidin-4-yl)-2-oxoindolin-5-yl)thiophene-2-carboximidamide]	> 100	> 100	–	0.6 µM	22.9 µM	5.52	0.99	38.3	–
CN(C)CCN1CCCc2ccc(NC(=N)c3cccs3)cc21 [Example 32, N-(1-(2-(Dimethylamino)ethyl)-1,2,3,4-tetrahydroquinolin-7-yl)thiophene-2-carboximidamide]	> 100	> 100	–	0.45 µM	37.7 µM	0.26	0.94	83.2	–
CN1CCC(N2CCc3cc(NC(=N)c4cccs4)ccc32)CC1 [Example 37, N-(1-(1-Methylpiperidin-4-yl)indolin-5-yl)thiophene-2-carboximidamide]	–	–	clear antihyperalgesic effect	1.22 µM	50.3 µM	4.35	–	41.2	–
CNCCN1CCCc2ccc(NC(=N)c3cccs3)cc21 [Example 44, N-(1-(2-(Methylamino)ethyl)-1,2,3,4-tetrahydroquinolin-7-yl)thiophene-2-carboximidamide]	0.63	4.3	–	0.12 µM	22.4 µM	> 100	0.48	187	–
N=C(Nc1ccc2c(c1)CCCN2C1CCNCC1)c1cccs1 [Example 47]	> 100	0.34	clear antihyperalgesic effect	0.6 µM	156 µM	6.57	3.8	260	–
Cl.Cl.N=C(Nc1ccc2c(c1)CCN2C1CCNCC1)c1cccs1 [Example 54, N-(1-(Piperidin-4-yl)indolin-5-yl)thiophene-2-carboximidamide dihydrochloride]	12	7.53	clear antihyperalgesic effect	0.27 µM	46 µM	–	2.6	170	IC50 [2]: > 100 µM
CC(C)NCCN1CCCc2cc(NC(=N)c3cccs3)ccc21 [Example 61, N-(1-(2-(Isopropylamino)ethyl)-1,2,3,4-tetrahydroquinolin-6-yl)thiophene-2-carboximidamide]	6.2	8	–	0.26 µM	30.2 µM	–	1.1	116	IC50 [2]: 2.9 µM; Selectivity eNOS/nNOS (rodent data in parentheses) (nNOS (Rat); rodent enzymes, values in parentheses): (5.6)
CNS(=O)(=O)Cc1ccc2[nH]cc(CCN(C)C)c2c1 [Sumatriptan succinate, reference compound]	–	–	–	–	–	–	–	–	hindpaw allodynia after inflammatory soup (IS) ([8]; 1 mg/kg s.c. 5 minutes prior to the soup, measured two hours after IS): prevention of the development of hindpaw allodynia
